What was measured:
Assay type in all cases: cell-based
NCI-H69 cell line = test: Cell viability assay for NCI-H69 cell line (EZ-Cytox); settings: Homo sapiens, NCI-H69, 120 h; H69 cells, 5 days, 3000 nM to 0.46 nM
Experimental: (§1) 3. Cell Viability Assay for NCI-H69, NCI-H526 Cell Lines
(§2) (1) Culture of NCI-H69, NCI-H526 Cell Lines
(§3) The NCI-H69 (hereafter H69) and NCI-H526 (hereafter H526) cell lines were purchased from KCLB.
(§4) (2) Treatment of Compounds of the Present Invention and Method of Cell Viability Assay
(§5) After treating the compound to each well to make the total volume of 200 μl, it was cultured in a CO2 incubator (Thermo Fisher Scientific) for 5 days. […] The absorbance of the completely cultured sample was measured by setting the wavelength of a plate reader (BMG Labtech) to […], and was measured after shaking for 3 minutes in a plate reader before measurement.
(§6) The results of cell viability for H526 and H69 cell line are shown in Table 3 and Table 4, respectively.
(§7) In Table 3 and Table 4, Activity represents IC50 value of each Exemplary Compound treatment group to H526 and H69 cell line, respectively (A: <30 nM, B: <50 nM, C: <100 nM, D: <200 nM, E: <400 nM).

MRC-5 cell line = test: Cell viability assay for MRC-5 cell line (EZ-Cytox); settings: Homo sapiens, MRC5, 120 h; MRC-5 normal cell line, 5 days, 10000 nM to 1.52 nM; read-out: Activity: IC50 value, cell viability, MRC-5 cell line (Exemplary Compounds)
Experimental: 4. Cell Viability Assay for MRC-5 Cell Line
(1) Culture of MRC-5 Cell Line
The MRC-5 cell line was purchased from KCLB. Passage of cultured cells was maintained within P15.
(2) Treatment of Compounds of the Present Invention
Then, it was cultured in 37° C. CO2 incubator (Thermo Fisher Scientific) for 5 days.
(3) Cytotoxicity Experiment
CO2 incubator for 4 hours.

NCI-H526 cell line = test: Cell viability assay for NCI-H526 cell line (EZ-Cytox); settings: Homo sapiens, NCI-H526, 120 h; H526 cells, 5 days, 3000 nM to 0.46 nM
Experimental: as §1, §2, §3, §4, §5, §6, §7

PLK1 = molecular target: T1, PLK1 (Homo sapiens, UniProt P53350); test: Luciferase assay for PLK1 in HeLa LgBit (Plk1-HiBit KI) cell line; settings: 300 nM compound, luminescence after 9 hours
T1 construct: endogenous in cells; host or cells: HeLa LgBit (Plk1-HiBit KI): HeLa stably expressing LgBit, with a CRISPR/Cas9 knock-in of HiBit at the endogenous PLK1 locus
T1 sequence (P53350 whole entry): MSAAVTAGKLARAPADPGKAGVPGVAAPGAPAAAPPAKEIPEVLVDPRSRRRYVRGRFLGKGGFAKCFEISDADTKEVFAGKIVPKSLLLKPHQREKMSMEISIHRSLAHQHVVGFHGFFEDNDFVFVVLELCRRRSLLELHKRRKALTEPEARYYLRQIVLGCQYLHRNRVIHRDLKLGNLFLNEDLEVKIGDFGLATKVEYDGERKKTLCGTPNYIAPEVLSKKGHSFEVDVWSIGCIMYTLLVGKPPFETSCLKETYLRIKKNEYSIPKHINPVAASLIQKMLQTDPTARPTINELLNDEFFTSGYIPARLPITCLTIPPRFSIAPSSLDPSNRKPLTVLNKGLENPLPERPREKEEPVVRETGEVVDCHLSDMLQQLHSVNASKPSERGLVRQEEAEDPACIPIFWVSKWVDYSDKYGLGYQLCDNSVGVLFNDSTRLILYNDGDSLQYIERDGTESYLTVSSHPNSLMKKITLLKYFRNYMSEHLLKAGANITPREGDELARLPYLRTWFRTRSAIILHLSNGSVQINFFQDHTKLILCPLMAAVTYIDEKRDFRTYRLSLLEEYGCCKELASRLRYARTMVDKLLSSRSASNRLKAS
Experimental: 2. Luciferase Assay for PLK1
(1) Preparation and Culture of HeLa LgBit (Plk1-HiBit KI) Cell Line
A HeLa cell line in which the LgBit vector was transfected and expressed stably was prepared. Then, after constructing gRNA and donor to express the HiBit amino acid sequence behind the C-terminal of the PLK1 gene, which was inherent in the cell, it was inserted into the cell together with a vector capable of expressing CRISPR/Cas9. Only the cells in which the insertion was completed and knock-in had progressed were selected, sub-cultured and used.
For cell culture, DMEM (Gibco), FBS (Gibco), PS (Gibco), […] cell culture dish (SPL), […] cell culture dish (SPL), 96-well culture plate (SPL), PBS pH 7.4 (Gibco), TrypLE™ Express (Gibco), Cell counter (Thermo Fisher Scientific) and 0.4% Trypan Blue Solution (DYNEBIO) were used.
(2) Treatment of Compounds of the Present Invention and Method of Luciferase Assay
In the case of HeLa LgBit (Plk1-HiBit KI), the compounds were treated after being released after thymidine block, and the process was as follows. Thymidine (Sigma-Aldrich) was completely dissolved in ddH2O and used in the experiment. For thymidine block, the products were treated with 2 mM of thymidine and then incubated for 24 hours. For release and chemical treatment, the medium was suctioned and washed with 1×PBS. TrypLE™ (Gibco) was added and incubated in 37° C. CO2 incubator (Thermo Fisher Scientific) for 5 mins. Cells neutralized by adding complete media were counted through a counter. For each well of a 96-well culture plate (SPL), 3.3×10^4 cells and a total medium volume of 150 μl were seeded and incubated in a CO2 incubator.
Each cell line was incubated in a CO2 incubator for 18 hours, and Endurazine (Promega, Cat. No. N257B) was added to each well to make up 4% of the total volume. After adding compounds of Examples in a 96-well white plate (SPL) to a concentration of 300 nM, the wavelength of the plate reader (BMG Labtech, CLARIOstar Plus) was set to 470-480 nm, and then the luminescence was tracked in real time.
In Table 2, Activity represents the ratio of the luminescence value of each Exemplary Compound treatment group to DMSO treatment group (+++: <0.3, ++: <0.5, +: <0.7).

With `COc1cc(C(=O)NC2CCN(CCN3CCN(c4cc(OC)c(NC5CCC(=O)NC5=O)cc4F)CC3)CC2)c(F)cc1Nc1ncc2c(n1)N(C1CCCC1)CC(F)(F)C(=O)N2C` (stereo not shown) [Compound 49, 4-((9-cyclopentyl-7,7-difluoro-5-methyl-6-oxo-6,7,8,9-tetrahydro-5H-pyrimido[4,5-b][1,4]diazepin-2-yl)amino)-N-(1-(2-(4-(4-((2,6-dioxopiperidin-3-yl)amino)-2-fluoro-5-methoxyphenyl)piperazin-1-yl)ethyl)piperidin-4-yl)-2-fluoro-5-methoxybenz amide] the IC50 (NCI-H69 cell line) was under 50 nM, the IC50 (MRC-5 cell line) was over 10000 nM and the IC50 (NCI-H526 cell line) was under 30 nM. For the same compound, the “Activity: ratio of the luminescence value of compound treatment group to DMSO treatment group” value (from here on “Activity: ratio”) (PLK1) was “++ (++: <0.5)”.
With `COc1cc(C(=O)NN2CCC(CCN3CCN(c4cc(F)c(NC5CCC(=O)NC5=O)cc4OC)CC3)CC2)ccc1Nc1ncc2c(n1)N(C1CCCC1)CC(F)(F)C(=O)N2C` (stereo not shown) [Compound 56, 4-((9-cyclopentyl-7,7-difluoro-5-methyl-6-oxo-6,7,8,9-tetrahydro-5H-pyrimido[4,5-b][1,4]diazepin-2-yl)amino)-N-(4-(2-(4-(4-((2,6-dioxopiperidin-3-yl)amino)-5-fluoro-2-methoxyphenyl)piperazin-1-yl)ethyl)piperidin-1-yl)-3-methoxybenzamide] the IC50 (NCI-H69 cell line) was under 30 nM, the IC50 (MRC-5 cell line) was over 10000 nM and the IC50 (NCI-H526 cell line) was under 30 nM. The “Activity: ratio” value (PLK1) was “++ (++: <0.5)”.
In the case of `COc1cc(C(=O)NN2CCC(C3CCN(c4ccc(C5CCC(=O)NC5=O)cc4F)C3)CC2)ccc1Nc1ncc2c(n1)N(C(C)C)CC(F)(F)C(=O)N2C` (stereo not shown) [Compound 2, 4-((7,7-difluoro-9-isopropyl-5-methyl-6-oxo-6,7,8,9-tetrahydro-5H-pyrimido[4,5-b][1,4]diazepin-2-yl)amino)-N-(4-(1-(4-(2,6-dioxopiperidin-3-yl)-2-fluorophenyl)pyrrolidin-3-yl)piperidin-1-yl)-3-methoxybenzamide], the IC50 (NCI-H69 cell line) is reported as under 100 nM, the IC50 (MRC-5 cell line) is reported as over 10000 nM and the IC50 (NCI-H526 cell line) is reported as under 50 nM. For the same compound, the “Activity: ratio” value (PLK1) was “++ (++: <0.5)”.
Compound `COc1cc(C(=O)NC2CC3(CCN(CC4CCN(c5ccc(NC6CCC(=O)NC6=O)c(F)c5)CC4)CC3)C2)ccc1Nc1ncc2c(n1)N(C1CCCC1)CC(F)(F)C(=O)N2C` (stereo not shown) [Compound 36, 4-((9-cyclopentyl-7,7-difluoro-5-methyl-6-oxo-6,7,8,9-tetrahydro-5H-pyrimido[4,5-b][1,4]diazepin-2-yl)amino)-N-(7-((1-(4-((2,6-dioxopiperidin-3-yl)amino)-3-fluorophenyl)piperidin-4-yl)methyl)-7-azaspiro[3.5]nonan-2-yl)-3-methoxybenzamide] has an IC50 (NCI-H69 cell line) of under 50 nM, an IC50 (MRC-5 cell line) of over 10000 nM and an IC50 (NCI-H526 cell line) of under 30 nM. The “Activity: ratio” value (PLK1) was “+++ (+++: <0.3)”.
With `COc1cc(C(=O)NC2CC3(CCN(CC4CCN(c5cc(F)c(NC6CCC(=O)NC6=O)cc5F)CC4)CC3)C2)c(F)cc1Nc1ncc2c(n1)N(C(C)C)CC(F)(F)C(=O)N2C` (stereo not shown) [Compound 69, 4-((7,7-difluoro-9-isopropyl-5-methyl-6-oxo-6,7,8,9-tetrahydro-5H-pyrimido[4,5-b][1,4]diazepin-2-yl)amino)-N-(7-((1-(4-((2,6-dioxopiperidin-3-yl)amino)-2,5-difluorophenyl)piperidin-4-yl)methyl)-7-azaspiro[3.5]nonan-2-yl)-2-fluoro-5-methoxybenzamide] the IC50 (NCI-H69 cell line) was under 50 nM, the IC50 (MRC-5 cell line) was over 10000 nM and the IC50 (NCI-H526 cell line) was under 30 nM. For the same compound, the “Activity: ratio” value (PLK1) was “++ (++: <0.5)”.
`CCN1CC(F)(F)C(=O)N(C)c2cnc(Nc3cc(F)c(C(=O)NN4CCC(CCN5CCN(c6ccc(NC7CCC(=O)NC7=O)c(F)c6)CC5)CC4)cc3OC)nc21` (stereo not shown) [Compound 35, N(4-(2-(4-(4-((2,6-dioxopiperidin-3-yl)amino)-3-fluorophenyl)piperazin-1-yl)ethyl)piperidin-1-yl)-4-((9-ethyl-7,7-difluoro-5-methyl-6-oxo-6,7,8,9-tetrahydro-5H-pyrimido[4,5-b][1,4]diazepin-2-yl)amino)-2-fluoro-5-methoxybenzamide] gave an IC50 (NCI-H69 cell line) of under 50 nM, an IC50 (MRC-5 cell line) of over 10000 nM and an IC50 (NCI-H526 cell line) of under 30 nM. For the same compound, the “Activity: ratio” value (PLK1) was “++ (++: <0.5)”.
`COc1cc(C(=O)NN2CCC(CCN3CCN(c4cc(C)c(NC5CCC(=O)NC5=O)cc4F)CC3)CC2)ccc1Nc1ncc2c(n1)N(C1CCCC1)CC(F)(F)C(=O)N2C` (stereo not shown) [Compound 74, 4-((9-cyclopentyl-7,7-difluoro-5-methyl-6-oxo-6,7,8,9-tetrahydro-5H-pyrimido[4,5-b][1,4]diazepin-2-yl)amino)-N-(4-(2-(4-(4-((2,6-dioxopiperidin-3-yl)amino)-2-fluoro-5-methylphenyl)piperazin-1-yl)ethyl)piperidin-1-yl)-3-methoxybenzamide] was tested, and the IC50 (NCI-H69 cell line) was under 30 nM, the IC50 (MRC-5 cell line) was over 10000 nM and the IC50 (NCI-H526 cell line) was under 30 nM. The “Activity: ratio” value (PLK1) was “+++ (+++: <0.3)”.
`COc1cc(C(=O)NN2CCC(CCN3CCN(c4ccc(NC5CCC(=O)NC5=O)c(F)c4)CC3)CC2)ccc1Nc1ncc2c(n1)N(C1CCCC1)CC(F)(F)C(=O)N2C` (stereo not shown) [Compound 34, 4-((9-cyclopentyl-7,7-difluoro-5-methyl-6-oxo-6,7,8,9-tetrahydro-5H-pyrimido[4,5-b][1,4]diazepin-2-yl)amino)-N-(4-(2-(4-(4-((2,6-dioxopiperidin-3-yl)amino)-3-fluorophenyl)piperazin-1-yl)ethyl)piperidin-1-yl)-3-methoxybenzamide] gave an IC50 (NCI-H69 cell line) of under 30 nM, an IC50 (MRC-5 cell line) of over 10000 nM and an IC50 (NCI-H526 cell line) of under 30 nM. The “Activity: ratio” value (PLK1) was “++ (++: <0.5)”.
`COc1cc(C(=O)NC2CCN(CCC3CCN(c4ccc(NC5CCC(=O)NC5=O)c(F)c4)CC3)CC2)c(F)cc1Nc1ncc2c(n1)N(C(C)C)CC(F)(F)C(=O)N2C` (stereo not shown) [Compound 37, 4-((7,7-difluoro-9-isopropyl-5-methyl-6-oxo-6,7,8,9-tetrahydro-5H-pyrimido[4,5-b][1,4]diazepin-2-yl)amino)-N-(1-(2-(1-(4-((2,6-dioxopiperidin-3-yl)amino)-3-fluorophenyl)piperidin-4-yl)ethyl)piperidin-4-yl)-2-fluoro-5-methoxybenzamide] gave an IC50 (NCI-H69 cell line) of under 100 nM, an IC50 (MRC-5 cell line) of over 10000 nM and an IC50 (NCI-H526 cell line) of under 50 nM. For the same compound, the “Activity: ratio” value (PLK1) was “++ (++: <0.5)”.
`COc1cc(C(=O)NN2C[C@@H]3[C@@H](CCN4CCN(c5ccc(NC6CCC(=O)NC6=O)cc5)CC4)[C@@H]3C2)ccc1Nc1ncc2c(n1)N(C(C)C)CC(F)(F)C(=O)N2C` (stereo partly drawn) [Compound 25, 4-((7,7-difluoro-9-isopropyl-5-methyl-6-oxo-6,7,8,9-tetrahydro-5H-pyrimido[4,5-b][1,4]diazepin-2-yl)amino)-N-((1R,5S,6s)-6-(2-(4-(4-((2,6-dioxopiperidin-3-yl)amino)phenyl)piperazin-1-yl)ethyl)-3-azabicyclo[3.1.0]hexan-3-yl)-3-methoxybenzamide] gave an IC50 (NCI-H69 cell line) of under 100 nM, an IC50 (MRC-5 cell line) of over 10000 nM and an IC50 (NCI-H526 cell line) of under 30 nM. For the same compound, the “Activity: ratio” value (PLK1) was “++ (++: <0.5)”.

From patent US20260273072A1, “NOVEL PLK1 DEGRADATION INDUCING COMPOUND” (UPPTHERA, INC., priority 2023, published 2026)
